Measured values as given in the supplement of paper PMC10307832.

Columns and labels:
Experiment in all cases: relative viability (nuclei count vs DMSO), 5 days (fraction); higher = more cells survive
[1] = compound: COC1=CC=C(C=C1)CN2C=CC3=C2C=C(C=C3)C(=O)NO
Outline: (§1)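 Cells of lung cancer lines were placed in 1536-well plates and kept overnight at 37 °C. Pinning then delivered five library-drug doses (not always all listed), spaced by √10, onto plates anchored with vehicle, and the cells were left 5 days without changing medium. One step fixed, permeabilised and stained them with Hoechst, and MetaXpress counted nuclei in 4× images. Viability, as a median over plates, is treated-well nuclei divided by vehicle-well nuclei, with acceptance only at control CV below 25% and at least one doubling.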

[2] = compound: C[C@]1(c2nc3c(C(N)=O)cccc3[nH]2)CCCN1 [Veliparib]
Outline: as §1

[3] = compound: COC1=CC=C(C=C1)CN2C=CC3=C2C=C(C=C3)C(=O)NO + CC(=O)Nc1cccc(-n2c(=O)n(C3CC3)c(=O)c3c(Nc4ccc(I)cc4F)n(C)c(=O)c(C)c32)c1 [Trametinib] (partner 0.02 µM)
Outline: (§2)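 Relative viability equals treated-well nuclei counts divided by vehicle-well nuclei counts. Counts came from 4× images of lung cancer cell lines grown in 1536-well plates for 5 days after pin-tool dosing on the day after seeding. Dosing used one drug alone or a fixed anchor-drug dose plus five library-drug doses (not always all listed) in √10 steps, and values are medians of duplicate plates.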

[4] = compound: C[C@]1(c2nc3c(C(N)=O)cccc3[nH]2)CCCN1 [Veliparib] + CC1(C)CCC(c2ccc(Cl)cc2)=C(CN2CCN(c3ccc(C(=O)NS(=O)(=O)c4ccc(N[C@H](CCN5CCOCC5)CSc5ccccc5)c(S(=O)(=O)C(F)(F)F)c4)cc3)CC2)C1 [Navitoclax] (partner 0.5 µM)
Outline: as §2

Cell Line | relative viability ([1]; 0.08 µM) | relative viability ([1]; 0.253 µM) | relative viability ([1]; 0.8 µM) | relative viability ([1]; 2.53 µM) | relative viability ([1]; 8 µM) | relative viability ([2]; 0.02 µM) | relative viability ([2]; 0.06325 µM) | relative viability ([2]; 0.2 µM) | relative viability ([2]; 0.6325 µM) | relative viability ([2]; 2 µM) | relative viability ([3]; first compound 0.08 µM) | relative viability ([3]; first compound 0.253 µM) | relative viability ([3]; first compound 0.8 µM) | relative viability ([3]; first compound 2.53 µM) | relative viability ([3]; first compound 8 µM) | relative viability ([4]; first compound 0.02 µM) | relative viability ([4]; first compound 0.06325 µM) | relative viability ([4]; first compound 0.2 µM) | relative viability ([4]; first compound 0.6325 µM) | relative viability ([4]; first compound 2 µM)
NCI-H2228 | 1.06 | 1.05 | 0.996 | 1.07 | 0.851 | 0.909 | 1.08 | 1.15 | 0.954 | 0.932 | 0.386 | 0.664 | 0.831 | 0.598 | 0.433 | 1.13 | 0.953 | 1.01 | 0.688 | 1.05
PC-14 | 0.84 | 0.939 | 0.998 | 1.01 | 0.904 | 0.805 | 0.936 | 0.974 | 0.955 | 0.993 | 0.741 | 0.687 | 0.753 | 0.722 | 0.734 | 0.991 | 1.05 | 0.937 | 0.895 | 0.898
RERF-LC-KJ | 0.956 | 1.03 | 0.984 | 1.03 | 0.969 | 0.964 | 0.939 | 1.01 | 0.938 | 1.01 | 0.865 | 1.06 | 0.827 | 0.892 | 0.809 | 1.05 |  | 1 | 0.852 | 0.754
LK-2 |  | 1.03 | 1.07 | 0.992 | 0.949 | 0.861 | 1.06 | 1.08 | 0.916 | 0.964 | 0.534 | 0.694 | 0.658 | 0.686 | 0.646 | 0.713 | 0.876 | 1.24 | 0.831 | 0.823
NCI-H1793 |  | 1 | 1.02 | 1.03 | 1.01 | 0.881 | 0.923 | 0.904 | 0.865 | 0.932 |  | 0.471 | 0.449 | 0.416 | 0.336 | 0.435 | 0.602 | 0.424 | 0.376 | 0.396
NCI-H1944 |  | 0.986 | 0.987 | 0.947 | 0.955 | 0.878 | 0.961 | 0.765 | 0.789 | 0.894 |  | 0.415 | 0.449 | 0.421 | 0.429 | 0.99 | 0.996 | 0.929 | 0.907 | 0.899
NCI-H1734 |  | 0.957 | 1.16 | 1.02 | 0.73 | 0.82 | 0.857 | 0.957 | 0.858 | 0.997 |  | 0.739 | 0.725 | 0.716 | 0.732 | 0.811 | 0.807 | 0.76 | 0.745 | 0.866
H3255 | 0.992 | 0.957 | 0.948 | 0.968 | 0.842 | 0.919 | 0.92 | 0.962 | 0.951 | 0.992 | 0.593 | 0.608 | 0.618 | 0.672 | 0.547 | 0.479 | 0.445 | 0.537 | 0.477 | 0.518
